The structures appear in SMILES notation.

The test has as its target T1, AvPCP (Trichormus variabilis, UniProt Q3M7N3).
T1 sequence (Q3M7N3 1-234): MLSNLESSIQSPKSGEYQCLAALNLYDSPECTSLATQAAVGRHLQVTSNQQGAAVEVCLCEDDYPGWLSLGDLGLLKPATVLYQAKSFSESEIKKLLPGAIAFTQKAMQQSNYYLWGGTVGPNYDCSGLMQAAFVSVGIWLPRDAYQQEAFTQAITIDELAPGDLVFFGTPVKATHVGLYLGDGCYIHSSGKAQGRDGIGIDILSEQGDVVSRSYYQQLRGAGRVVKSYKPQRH
The experiment in a line: hydrolysis of murein tripeptide to Ala-γ-D-Glu and DAP. As to conditions: assay details only in Supplemental Data. Format: biochemical.

For `C[C@H](N)C(=O)N[C@H](CCC(=O)N[C@@H](CCC[C@@H](N)C(=O)O)C(=O)O)C(=O)O` [Ala-γ-D-Glu-DAP], the “hydrolysis of murein tripeptide to Ala-γ-D-Glu and DAP” value was “AvPCP can, indeed, hydrolyze Ala-γ-D-Glu-DAP to Ala-γ-D-Glu and DAP”.

For the origin of these results see paper PMC2667786 (Structure (London, England : 1993), 2009).
